Data: US6992079B2, “Substituted 11-phenyl-dibenzazepine compounds useful for the treatment or prevention of diseases characterized by abnormal cell proliferation” (President Fellows of Harvard College, priority 1997, dated 2006)
Read-outs that look alike come from different tables or passages of the source.

Experiments:
Format in all cases: cell-based
[1] = test system: MDA-MB-23; experiment: SRB antiproliferative assay; conditions: Homo sapiens; MDA-MB-23 (Breast); SRB; 5% FCS/5 day incubation; read-out: IC50
Excerpt: (§1) The cells were passaged using Trypsin (Gibco).

[2] = test system: MMRU; experiment: SRB antiproliferative assay; conditions: Homo sapiens, MMRU (Melanoma), 5% FCS/5 day incubation
Excerpt: as §1

[3] = test system: RPMI-8226; experiment: In-Vitro Testing SRB panel: Leukemia; conditions: RPMI-8226
[4] = test system: NCI-H23; conditions: NCI-H23
[5] = test system: NCI-H522; conditions: NCI-H522
[6] = test system: LOX IMVI; experiment: In-Vitro Testing SRB panel: Melanoma
[7] = test system: MALM-3M; experiment: In-Vitro Testing SRB panel: Melanoma; conditions: MALM-3M
[8] = test system: M14; experiment: In-Vitro Testing SRB panel: Melanoma; conditions: M14
[9] = test system: SK-MEL-2; experiment: In-Vitro Testing SRB panel: Melanoma; conditions: SK-MEL-2
[10] = test system: SK-MEL-2B; experiment: In-Vitro Testing SRB panel: Melanoma
[11] = test system: UACC-257; experiment: In-Vitro Testing SRB panel: Melanoma; conditions: UACC-257
[12] = test system: UACC-62; experiment: In-Vitro Testing SRB panel: Melanoma; conditions: UACC-62
[13] = test system: IGROV1; experiment: In-Vitro Testing SRB panel: Ovarian Cancer
[14] = test system: OVCAR-5; experiment: In-Vitro Testing SRB panel: Ovarian Cancer; conditions: OVCAR-5
[15] = test system: A498; experiment: In-Vitro Testing SRB panel: Renal Cancer; conditions: A498
[16] = test system: TK-10; experiment: In-Vitro Testing SRB panel: Renal Cancer; conditions: TK-10
[17] = test system: DU-145; experiment: In-Vitro Testing SRB panel: Prostate Cancer; conditions: DU-145
[18] = test system: HS 578T; experiment: In-Vitro Testing SRB panel: Breast Cancer
[19] = Homo sapiens, read-out: LC50 (the source's name)

**Q.** What does the source list for `COc1cccc2c1C(c1ccccc1Cl)c1cc(Cl)ccc1N(C(=O)c1ccc([N+](=O)[O-])cc1)C2` (stereo not drawn) [Compound 31]?
**A.** IC50 [1]: 0.4 µM; IC50 [2]: 0.2 µM; GI50 ([3]; Homo sapiens): 0.327 µM; CC50 [3, 19]: > 100 µM; TGI [3]: >1.00E−04 Molar; Percent Growth ([3]; log10 conc -4 Molar): 21%; Percent Growth ([3]; log10 conc -5 Molar): 23%; Percent Growth ([3]; log10 conc -6 Molar): 36%; Percent Growth ([3]; log10 conc -7 Molar): 65%; Percent Growth ([3]; log10 conc -8 Molar): 82%; GI50 ([4]; Homo sapiens): 2.65 µM; CC50 [4, 19]: > 100 µM; TGI [4]: >1.00E−04 Molar; Percent Growth ([4]; log10 conc -4 Molar): 19%; Percent Growth ([4]; log10 conc -5 Molar): 33%; Percent Growth ([4]; log10 conc -6 Molar): 62%; Percent Growth ([4]; log10 conc -7 Molar): 92%; Percent Growth ([4]; log10 conc -8 Molar): 96%; GI50 ([5]; Homo sapiens): 7.48 µM; CC50 [5, 19]: > 100 µM; TGI [5]: >1.00E−04 Molar; Percent Growth ([5]; log10 conc -4 Molar): 36%; Percent Growth ([5]; log10 conc -5 Molar): 44%; Percent Growth ([5]; log10 conc -6 Molar): 89%; Percent Growth ([5]; log10 conc -7 Molar): 88%; Percent Growth ([5]; log10 conc -8 Molar): 99%; TGI [6]: >1.00E−04 Molar; GI50 ([6]; Homo sapiens): 0.617 µM; CC50 [6, 19]: > 100 µM; Percent Growth ([6]; log10 conc -4 Molar): 13%; Percent Growth ([6]; log10 conc -5 Molar): 12%; Percent Growth ([6]; log10 conc -6 Molar): 39%; Percent Growth ([6]; log10 conc -7 Molar): 93%; Percent Growth ([6]; log10 conc -8 Molar): 97%; CC50 [7, 19]: > 100 µM; TGI [7]: >1.00E−04 Molar; Percent Growth ([7]; log10 conc -4 Molar): 97%; Percent Growth ([7]; log10 conc -5 Molar): 96%; Percent Growth ([7]; log10 conc -6 Molar): 42%; Percent Growth ([7]; log10 conc -7 Molar): 123%; Percent Growth ([7]; log10 conc -8 Molar): 117%; GI50 ([8]; Homo sapiens): 1.22 µM; CC50 [8, 19]: > 100 µM; TGI [8]: >1.00E−04 Molar; Percent Growth ([8]; log10 conc -4 Molar): 21%; Percent Growth ([8]; log10 conc -5 Molar): 30%; Percent Growth ([8]; log10 conc -6 Molar): 52%; Percent Growth ([8]; log10 conc -7 Molar): 93%; Percent Growth ([8]; log10 conc -8 Molar): 92%; GI50 ([9]; Homo sapiens): 79.3 µM; CC50 [9, 19]: > 100 µM; TGI [9]: >1.00E−04 Molar; Percent Growth ([9]; log10 conc -4 Molar): 47%; Percent Growth ([9]; log10 conc -5 Molar): 78%; Percent Growth ([9]; log10 conc -6 Molar): 102%; Percent Growth ([9]; log10 conc -7 Molar): 99%; Percent Growth ([9]; log10 conc -8 Molar): 101%; GI50 ([10]; Homo sapiens): 7.47 µM; CC50 ([10]; Homo sapiens, SK-MEL-2B, read-out: LC50 (the source's name)): > 100 µM; TGI ([10]; SK-MEL-2B): >1.00E−04 Molar; Percent Growth ([10]; SK-MEL-2B, log10 conc -4 Molar): 31%; Percent Growth ([10]; SK-MEL-2B, log10 conc -5 Molar): 48%; Percent Growth ([10]; SK-MEL-2B, log10 conc -6 Molar): 62%; Percent Growth ([10]; SK-MEL-2B, log10 conc -7 Molar): 87%; Percent Growth ([10]; SK-MEL-2B, log10 conc -8 Molar): 92%; GI50 ([11]; Homo sapiens): 0.94 µM; CC50 [11, 19]: > 100 µM; TGI [11]: >1.00E−04 Molar; Percent Growth ([11]; log10 conc -4 Molar): 7%; Percent Growth ([11]; log10 conc -5 Molar): 27%; Percent Growth ([11]; log10 conc -6 Molar): 49%; Percent Growth ([11]; log10 conc -7 Molar): 91%; Percent Growth ([11]; log10 conc -8 Molar): 98%; GI50 ([12]; Homo sapiens): 0.43 µM; CC50 [12, 19]: > 100 µM; TGI [12]: >1.00E−04 Molar; Percent Growth ([12]; log10 conc -4 Molar): 14%; Percent Growth ([12]; log10 conc -5 Molar): 32%; Percent Growth ([12]; log10 conc -6 Molar): 36%; Percent Growth ([12]; log10 conc -7 Molar): 74%; Percent Growth ([12]; log10 conc -8 Molar): 90%; GI50 ([13]; Homo sapiens, IGROV-1): 2.13 µM; CC50 ([13]; Homo sapiens, IGROV-1, IGROV1, read-out: LC50 (the source's name)): > 100 µM; TGI ([13]; IGROV1): >1.00E−04 Molar; Percent Growth ([13]; IGROV1, log10 conc -4 Molar): 29%; Percent Growth ([13]; IGROV1, log10 conc -5 Molar): 35%; Percent Growth ([13]; IGROV1, log10 conc -6 Molar): 57%; Percent Growth ([13]; IGROV1, log10 conc -7 Molar): 80%; Percent Growth ([13]; IGROV1, log10 conc -8 Molar): 94%; GI50 ([14]; Homo sapiens): 91.7 µM; CC50 [14, 19]: > 100 µM; TGI [14]: >1.00E−04 Molar; Percent Growth ([14]; log10 conc -4 Molar): 49%; Percent Growth ([14]; log10 conc -5 Molar): 70%; Percent Growth ([14]; log10 conc -6 Molar): 82%; Percent Growth ([14]; log10 conc -7 Molar): 102%; Percent Growth ([14]; log10 conc -8 Molar): 101%; TGI [15]: 6.86E−06 Molar; Percent Growth ([15]; log10 conc -4 Molar): −32%; Percent Growth ([15]; log10 conc -5 Molar): −11%; Percent Growth ([15]; log10 conc -6 Molar): 55%; Percent Growth ([15]; log10 conc -7 Molar): 93%; Percent Growth ([15]; log10 conc -8 Molar): 93%; GI50 ([15]; Homo sapiens): 1.19 µM; CC50 [15, 19]: > 100 µM; GI50 ([16]; Homo sapiens): 16.9 µM; CC50 [16, 19]: > 100 µM; TGI [16]: >1.00E−04 Molar; Percent Growth ([16]; log10 conc -4 Molar): 34%; Percent Growth ([16]; log10 conc -5 Molar): 55%; Percent Growth ([16]; log10 conc -6 Molar): 85%; Percent Growth ([16]; log10 conc -7 Molar): 105%; Percent Growth ([16]; log10 conc -8 Molar): 102%; TGI [17]: >1.00E−04 Molar; Percent Growth ([17]; log10 conc -4 Molar): 26%; Percent Growth ([17]; log10 conc -5 Molar): 43%; Percent Growth ([17]; log10 conc -6 Molar): 84%; Percent Growth ([17]; log10 conc -7 Molar): 105%; Percent Growth ([17]; log10 conc -8 Molar): 105%; GI50 ([17]; Homo sapiens): 6.84 µM; CC50 [17, 19]: > 100 µM; TGI ([18]; HS 578T): >1.00E−04 Molar; Percent Growth ([18]; HS 578T, log10 conc -4 Molar): 17%; Percent Growth ([18]; HS 578T, log10 conc -5 Molar): 31%; Percent Growth ([18]; HS 578T, log10 conc -6 Molar): 49%; Percent Growth ([18]; HS 578T, log10 conc -7 Molar): 74%; Percent Growth ([18]; HS 578T, log10 conc -8 Molar): 90%; GI50 ([18]; Homo sapiens, Hs-578T): 0.913 µM; CC50 ([18]; Homo sapiens, HS 578T, read-out: LC50 (the source's name)): > 100 µM
